In publication PMC4919790, “Allosteric modulation of AURKA kinase activity by a small-molecule inhibitor of its protein-protein interaction with TPX2” (Scientific Reports, 2016):
Read-outs that look alike come from different tables or passages of the source.

Tests used:
[1] = target: T1, AURKA (Aurora-AG-126-390) (Homo sapiens, UniProt O14965); assay: Isothermal titration calorimetry; assay type: binding; conditions: for Ligand efficiency (Leff): calculated using Ki or Kd values; for Kd: 25 °C
T1 construct: was titrated into Aurora-AG-126-390 protein solution (30 μM); extra N-terminal Gly from cloning (the 'G' of the construct name); 6xHis (read by me from reverse primer 4); made in house; host or cells: E. coli BL21 (DE3) with pUBS550, co-expressed with lambda phosphatase (pBAT4-λPP)
T1 sequence (O14965 126-390): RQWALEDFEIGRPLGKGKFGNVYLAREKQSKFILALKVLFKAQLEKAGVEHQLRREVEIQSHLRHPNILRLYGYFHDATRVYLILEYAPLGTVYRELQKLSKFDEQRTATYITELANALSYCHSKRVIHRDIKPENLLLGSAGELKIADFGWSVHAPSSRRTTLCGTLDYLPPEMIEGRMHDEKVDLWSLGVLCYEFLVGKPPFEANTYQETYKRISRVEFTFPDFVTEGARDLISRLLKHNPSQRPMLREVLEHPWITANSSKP
Experimental: Calorimetric titrations were performed on an iTC200 (MicroCal, Inc.) device. Protein was buffer exchanged into ITC buffer (Buffer C with 2% DMSO). Titration experiments were performed at 25 °C with an initial injection (0.4 μL) at a duration of 0.8 s, followed by 19 injections (2 μL) at a duration of 4 s. […] Binding isotherms were fit by non-linear regression using the single-site model provided by Origin software (MicroCal, Inc.). The stoichiometry of the interaction (N), equilibrium association constant (Ka) and change of enthalpy (ΔH) were floated during the fitting.

[2] = target: T2, AURKA-TPX2 interaction (His-tagged AURKA123–403 / TAMRA-labelled TPX2 1–43) (Homo sapiens, UniProt O14965); assay: Fluorescence anisotropy (FA) competition assay: displacement of TAMRA-TPX2 1-43 from AURKA123-403
T2 sequence (O14965 123-403): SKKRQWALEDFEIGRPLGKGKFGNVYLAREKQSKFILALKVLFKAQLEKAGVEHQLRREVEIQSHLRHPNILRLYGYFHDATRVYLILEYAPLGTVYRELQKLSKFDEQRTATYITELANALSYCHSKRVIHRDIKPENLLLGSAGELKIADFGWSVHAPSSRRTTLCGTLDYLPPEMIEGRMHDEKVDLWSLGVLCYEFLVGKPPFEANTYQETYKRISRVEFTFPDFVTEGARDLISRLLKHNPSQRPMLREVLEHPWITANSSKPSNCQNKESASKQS
From the text: The HTS actives were resupplied and retested to check for dose-dependent inhibition of the PPI in FA assay.

pT287/pT288 AURKA126–390 = target: T3, pT287/pT288 AURKA126–390 (Homo sapiens, UniProt O14965); assay: HTRF in vitro kinase assay (KinEASE, Cisbio); assay type: biochemical; conditions: excess inhibitor (25x Ki), absence of TPX2
T3 construct: a T287/T288 doubly-phosphorylated recombinant AURKA126–390 in the absence of TPX2; 6xHis (inferred from reverse primer 4 of AurAG-126-390); made in house; host or cells: E. coli BL21 (DE3) with pUBS550
T3 sequence (O14965 126-390): T1 sequence (O14965 126-390)
Experimental: To test this hypothesis, we used a commercially available in vitro kinase assay (KinEASE, Cisbio) to measure AURKA-dependent phosphorylation of a generic peptide substrate by homogeneous time-resolved fluorescence (HTRF) assay (Supplementary Fig. 9). Enzymatic phosphorylation occurred in the presence of the substrate peptide and ATP, and the phosphorylated substrate was subsequently detected in a proprietary antibody detection step. These studies were performed using a T287/T288 doubly-phosphorylated recombinant AURKA126–390 in the absence of TPX2.
The volume of enzymatic reaction was 10 μL, [AURKA] = 5 ng/well, excess propriatory peptide substrate (1 μM) and ATP (100 μM). The reaction was incubated for 10 min. MLN8237 is an ATP-competitive inhibitor used as a positive control. […] Error bars represent standard deviation (n = 3).

[3] = target: T4, AURKA / mCherry-TPX2 1–43 (Homo sapiens, UniProt O14965); assay: Co-immunoprecipitation of AURKA and mCherry-TPX2 1-43 from HeLa cell lysates; conditions: cell lysates (500 µg) incubated 2 h, 25-400 µM, +DOX
T4 construct: endogenous in cells; host or cells: HeLa FlpIn TREx lysate; AURKA endogenous, mCherry-TPX2 1-43 stably transfected and doxycycline-induced
T4 sequence (O14965 1-403): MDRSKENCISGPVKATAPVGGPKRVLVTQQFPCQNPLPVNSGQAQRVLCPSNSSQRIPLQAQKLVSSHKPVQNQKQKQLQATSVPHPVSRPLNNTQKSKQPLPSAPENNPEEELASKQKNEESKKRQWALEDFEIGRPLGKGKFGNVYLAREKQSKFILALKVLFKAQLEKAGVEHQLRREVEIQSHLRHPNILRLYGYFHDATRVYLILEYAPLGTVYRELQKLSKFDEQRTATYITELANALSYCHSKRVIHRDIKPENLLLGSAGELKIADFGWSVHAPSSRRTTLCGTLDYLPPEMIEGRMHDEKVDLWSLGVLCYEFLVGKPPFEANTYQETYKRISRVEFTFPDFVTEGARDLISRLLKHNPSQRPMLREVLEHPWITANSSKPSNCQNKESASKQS
Experimental: Stable HeLa FlpIn TREx cell line expressing a fusion mCherry-TPX2_1–43 protein upon addition of doxycycline ([…]) was generated (Supplementary Methods). This cell line was used for further experiments. For immunoblotting, proteins were extracted in lysis buffer (50 mM HEPES, pH 7.4; 100 mM NaCl, 0.5% NP-40, 10 mM EDTA, 20 mM β-glycerophosphate, 1 mM DTT, 1 mM sodium orthovanadate, 1 mM PMSF, protease inhibitors and phosphatase inhibitor (Roche)). 0.5 mg of lysate was used for co-immunoprecipitation. mCherry pull down was performed using RFP-trap (Chromotrap) following manufacturers’ instructions. Extracts were resolved by SDS-PAGE, transferred to PVDF membrane, blocked in TBS-Tween (50 mM Tris pH 7.6, 150 mM NaCl, 0.1% Tween-20) plus 5% non-fat dried milk, and probed with primary antibodies at 4 °C overnight. Membrane was incubated with secondary mouse HRP (GE Healthcare, NXA931) and rabbit HRP antibodies (Jackson Laboratories, 111-036-047) for 1 h at room temperature and the signal was developed using ECL or ECL prime reagent (GE Healthcare).
co -‐immunoprecipitation
(1 picture or pasted object on this page, not shown here)

[4] = tested on: phosphorylated T288 (pT288) AURKA in mitotic HeLa cells; assay: High-content AURKA T288-dephosphorylation assay; assay type: cell-based; conditions: Homo sapiens, read-out: EC50, % cells with below threshold pT288
Experimental: A modified version of the Aurora A mislocalisation assay using the same cells, doxycycline-treated controls, drugging plan, Bortezomib treatment, fixing protocol, Hoechst staining and secondary antibodies as above. The primary antibodies used were anti-phospho Aurora A Thr288 (Cell Signaling, #3079, 1:500) and anti-Histone H3 phospho S10 (Abcam, 14955, 1:2000). High-content imaging settings were the same as for the mislocalisation assay, but analysis was performed using the CellHealthProfiling v4 Bioapplication. Cells were identified in the Hoechst channel as above, and the resulting nuclear mask used for all subsequent measurements. Mitotic cells were selected from the images on the basis of phospho-histone H3 positivity, using a threshold 10 times above the image background. These selected cells were then measured for phospho-Aurora A staining intensity within a target area defined by expanding the nuclear mask by 8 pixels then collapsing it using a threshold for the phospho-Aurora channel, set to 3 times the background staining in this channel. Assay thresholds were calculated from the negative control wells of each plate as for the mislocalisation assay and ‘% dephosphorylated Aurora A T288’ scores were calculated for each well. EC50 values were calculated from four-parameter dose-response curves that were fitted using Prism GraphPad software (La Jolla, CA).

[5] = tested on: AURKA on the spindle in mitotic HeLa cells; assay: High-content microscopy assay of AURKA mislocalisation from spindle microtubules; assay type: cell-based; conditions: Homo sapiens, 2 h treatment, % cells with below threshold AURKA intensity under TPX2 mask
Experimental: For quantitative determination of Aurora-A mislocalisation from spindle microtubules, cells were plated at a density of 0.75 × 10^5 cells per well of a clear flat bottom 96-well plate. On each plate a set of wells were treated with doxycycline as a positive control. After 24 h the compounds were diluted in […] Bortezomib (Selleck Chemicals) and treated for 2 h. Hereafter all steps were carried out at room temperature. The cells were fixed by addition of freshly prepared PHEM-buffered formaldehyde (100 μL per well) for 10 minutes (100 mM PIPES, 20 mM HEPES, 5 mM EGTA, 2 mM MgCl2, 0.2% TritonX-100, 6.4% formaldehyde). These were permeablised with 100 μl of PBS-T-T (1X PBS/0.1% Triton- 100/0.1% Tween-20) for 10 min, blocked in 3% BSA-PBS-T-T for 30 min. Hereafter all the steps including dilution of antibodies was done in the blocking solution. A cocktail of primary antibodies (50 μL, mouse anti-TPX2, Abcam 32795, 18D5-1, 1:500; rabbit anti-Aurora A, Millipore EP1008Y, 1:1000) for 1.5 h and washed thrice with the blocking solution. […]
The plates were scanned using Molecular Translocation protocol with 40X objective with 3 flurophore recognising channels. […] The software generated an overlay of TPX2-stained spindles (channel 2), and the average intensity of the Aurora-A (channel 3) within that mask was scored. […]

[6] = target: T5, AURKAGSMGS-126-390 (non-phosphorylated, uncleaved His-tag) (Homo sapiens, UniProt O14965); assay: In vitro auto-phosphorylation assay (anti-pT288 Western blot); assay type: biochemical; conditions: AurkinA 100 μM, ATP 100 μM, protein 30 μM, up to 40 min
T5 construct: Aurora-A kinase construct AurAGSMGS-126-391 was purified as described above; made in house; host or cells: E. coli BL21 (DE3) with pUBS550, co-expressed with lambda phosphatase
T5 sequence (O14965 126-391): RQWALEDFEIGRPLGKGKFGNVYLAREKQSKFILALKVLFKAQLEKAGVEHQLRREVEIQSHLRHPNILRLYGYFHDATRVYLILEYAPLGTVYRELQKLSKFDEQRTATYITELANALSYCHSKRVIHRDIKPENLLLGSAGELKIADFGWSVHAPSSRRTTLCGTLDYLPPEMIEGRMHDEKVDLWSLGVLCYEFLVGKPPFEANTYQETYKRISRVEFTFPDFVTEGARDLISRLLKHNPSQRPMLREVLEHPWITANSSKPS
Experimental: It has been extensively reported that auto-phosphorylation of […] in the activation loop stimulates AURKA kinase activity. […] For autophosphorylation experiments Aurora-A kinase construct […]-126-391 was purified as described above but using buffers containing no ATP and His-tag was left on the N-terminus. […] Control sample contained JNJ-7706621 (100 μM) that was added to the reaction prior ATP. 15 ng of each sample were run in 11% SDS-PAGE gels. Western blots were prepared by electro-blotting SDS-PAGE gels onto PVDF membranes (Millipore) and probing with anti-penta-his-tag antibody (1:2000 dilution, Qiagen, 34660) or anti-Aurora-A phosphoT288 antibodies (1:1000 dilution, Abcam, ab195748), followed by HRP conjugated […]-mouse antibodies (GE Healthcare) or HRP conjugated goat anti-rabbit antibodies (Abcam), respectively.

[7] = Average IC50, Supplementary Table 1, FA assay
[8] = Calculated Ki, Supplementary Table 1, free-concentration corrected Cheng-Prusov
[9] = IC50, inhibition of AURKA:TPX2 interaction in FA assay, Fig. 1b
[10] = Ki from FA competition assay, free-concentration corrected Cheng-Prusov equations

SMILES | Ligand efficiency (Leff) [1] | IC50 [2, 7] [µM] | Ki [2, 8] [µM] | IC50 [2, 9] [µM] | Ki [2, 10] [µM] | N (stoichiometry, ITC fit) ([1]; single-site model fit) [Sites] | ∆H (ITC fit) ([1]; single-site model fit) [kcal/mol] | ∆S (ITC fit) ([1]; single-site model fit) [cal/mol/deg] | also measured
O=C(O)c1cc(-c2ccccc2)nc2ccccc12 [compound 3, 2-phenyl-4-carboxyquinoline, reference compound] | 0.31 | 289 | 62.5 | 63 | 68 | – | – | – | –
O=C(O)c1ccccc1NC(=O)c1cc(-c2ccccc2)nc2ccccc12 [compound 1] | 0.25 | – | – | 41 | 8.9 | 0.975 ±0.0300 | -5.917 ± 0.2397 | 2.92 | Kd ([1]; read-out: Kd (ITC)): 10.6 µM; Kd ([1]; read-out: pKd (ITC) (converted)): 10.5 µM; K (association constant, ITC fit) ([1]; single-site model fit): 94700 ± 7610 M⁻¹; Effect of JNJ-7706621 on the compound's inhibition of the AURKA-TPX2 1-43 interaction ([2]; [JNJ] = 0.4 μM vs DMSO): unaffected
O=C(O)c1cc(-c2cccc(Br)c2)nc2c(F)cccc12 [AurkinA, 2-(3-bromophenyl)-8-fluoroquinoline-4-carboxylic acid] | – | – | – | – | – | 0.924 | -23.09 | -52.6 | Maximal inhibition of kinase activity (plateau) (pT287/pT288 AURKA126–390): ~ 75%; Effect on co-immunoprecipitation of AURKA with RFP (mCherry-TPX2 1-43) [3]: inhibited; EC50 [4]: 135 µM; -T∆S of binding ([1]; ITC): 15.7 kcal/mol; ∆H of binding ([1]; ITC): -23.1 kcal/mol; EC50 [5]: 85 µM; Effect on auto-phosphorylation of AURKA (pT288) [6]: significantly delayed

Second part, led by results:

Ligand efficiency (Leff) [1] | IC50 [2, 7] [µM] | Ki [2, 8] [µM] | IC50 [2, 9] [µM] | Ki [2, 10] [µM] | N (stoichiometry, ITC fit) ([1]; single-site model fit) [Sites] | ∆H (ITC fit) ([1]; single-site model fit) [kcal/mol] | ∆S (ITC fit) ([1]; single-site model fit) [cal/mol/deg] | SMILES | also measured
– | 25.6 | 5.5 | – | – | – | – | – | O=C(O)c1cc(-c2cccc(Br)c2)nc2ccccc12 [AA30] | –
– | 34.4 | 7.4 | – | – | – | – | – | O=C(O)c1cc(-c2cccc(Br)c2)nc2ccc(Cl)cc12 [AA29] | –
